The record followed here is US11267812B2 (Mirati Therapeutics, Inc., priority 2016, dated 2022).

The test system of one test is Phospho-ERK in NCI-H358 cells expressing KRas G12C. In words: Cellular inhibition of KRas G12C by Phospho-ERK measurement in NCI-H358 cells. The format is cell-based. The conditions noted are these: Homo sapiens, NCI-H358, 3 h, read-out: IC50 (pERK(Thr202/Tyr204) normalized with GAPDH). How it is done:
The cellular inhibition of KRAs G12C by exemplary compounds of the present invention was determined by measuring the amount of a downstream marker of KRas activity, phosphorylated ERK (“Phospho-ERK”).
NCI-H358 cells (ATCC CRL-5807) express KRas G12C and were grown in RPMI medium supplemented with 10% fetal bovine serum, penicillin/streptomycin and 10 mM HEPES. Cells were plated in poly-D-Lysine coated 96-well plates at a concentration of 50,000 cells/well and allowed to attach for 8-12 hours. Diluted compounds were then added at a final concentration of 0.5% DMSO. After 3 hours, the medium was removed, 150 μL of 4% formaldehyde was added and the plates were incubated for 20 minutes. The plates were washed with PBS, and permeabilized using 150 μL of ice cold 100% methanol for 10 minutes. Non-specific antibody binding to the plates was blocked using 100 μL Licor Blocking Buffer (Li-Cor Biotechnology, Lincoln Nebr.) for 1 hour at room temperature. Positive control samples and samples lacking cells were parallel processed with test samples as standards.
The amount Phospho-ERK was determined using an antibody specific for the phosphorylated form of ERK and compared to the amount of GAPDH. Primary antibodies used for detection were added as follows: Phospho-ERK (Cell Signaling cs9101) diluted 1:500 and GAPDH (Millipore MAB374) diluted 1:5000 in Licor block+0.05% Tween 20. The plates were incubated for 2 hours at room temperature. The plates were washed with PBS+0.05% Tween 20.
Secondary antibodies used to visualize primary antibodies were added as follows: Anti-rabbit-680 diluted 1:1000 and Anti-mouse-800 diluted 1:1000 in Licor Block+0.050 Tween 20 and incubated for 1 hour at room temperature. The plates were washed with PBS+0.05% o Tween 20. A100 L aliquot of PBS was added to each well and the plates were read on a LICOR AERIUS plate reader.
The pERK(Thr202/Tyr204) signal was normalized with the GAPDH signal and percent of DMSO control values were calculated. IC50 values were generated using a 4 parameter fit of the dose response curve. Key: “A”≥0.001-≤1 μM; “B”[…] and ND=not determined.
Consider `C=CC(=O)N1CCN(c2nc(OC[C@@H]3CCCN3C)nc3c2CCN(c2cc(O)cc4ccccc24)C3)CC1` [Example 127, (S)-1-(4-(7-(3-hydroxynaphthalen-1-yl)-2-((1-methylpyrrolidin-2-yl)methoxy)-5,6,7,8-tetrahydropyrido[3,4-d]pyrimidin-4-yl)piperazin-1-yl)prop-2-en-1-one], for which the IC50 was 1 to 1000 nM.

For the compound `C=CC(=O)N1CCN(c2nc(OC[C@H]3CCCN3C)nc3c2CCN(c2cc(O)cc4ccccc24)C3)CC1` [Example 187, (R)-1-(4-(7-(3-hydroxynaphthalen-1-yl)-2-((1-methylpyrrolidin-2-yl)methoxy)-5,6,7,8-tetrahydropyrido[3,4-d]pyrimidin-4-yl)piperazin-1-yl)prop-2-en-1-one], the IC50 was in the range of 1 to 1000 nM.

The test is the same for the next values; noted with them: Homo sapiens; NCI-H358 cells, 3 hours compound treatment; read-out: IC50 (pERK(Thr202/Tyr204) normalized with GAPDH).
For `C/C=C/C(=O)N1CCN(c2nc(OC[C@@H]3CCCN3C)nc3c2CCN(c2cccc4ccccc24)C3)CC1CC#N` (stereo partly drawn) [Example 263, 2-[1-[(E)-but-2-enoyl]-4-[2-[[(2S)-1-methylpyrrolidin-2-yl]methoxy]-7-(1-naphthyl)-6,8-dihydro-5H-pyrido[3,4-d]pyrimidin-4-yl]piperazin-2-yl]acetonitrile], the IC50 was in the range of 1 to 1000 nM.

With `C=CC(=O)N1CCN(c2nc(OCCCN3CCN(C(C)=O)CC3)nc3c2CCN(c2cc(O)cc4ccccc24)C3)CC1` [Example 135, 1-[4-[2-[3-(4-acetylpiperazin-1-yl)propoxy]-7-(3-hydroxy-1-naphthyl)-6,8-dihydro-5H-pyrido[3,4-d]pyrimidin-4-yl]piperazin-1-yl]prop-2-en-1-one], the IC50 is 1 to 1000 nM.

With `C=CC(=O)N1CCN(c2nc(OCCN(C)C)nc3c2CCN(c2cc(O)cc4ccccc24)C3)C[C@@H]1CC#N` [Example 176, 2-[(2S)-4-[2-[2-(dimethylamino)ethoxy]-7-(3-hydroxy-1-naphthyl)-6,8-dihydro-5H-pyrido[3,4-d]pyrimidin-4-yl]-1-prop-2-enoyl-piperazin-2-yl]acetonitrile], the IC50 is 1 to 1000 nM.

On to `C=CC(=O)N1CCN(c2nc(OC[C@@H]3C[C@H](OC)CN3C)nc3c2CCN(c2cccc4ccccc24)C3)CC1CC#N` (stereo partly drawn) [Example 222, 2-(1-acryloyl-4-(2-(((2S,4S)-4-methoxy-1-methylpyrrolidin-2-yl)methoxy)-7-(naphthalen-1-yl)-5,6,7,8-tetrahydropyrido[3,4-d]pyrimidin-4-yl)piperazin-2-yl)acetonitrile], for which the IC50 was in the range of 1 to 1000 nM.

As for `C=CC(=O)N1CCN(c2nc(OC[C@@H]3CCCN3C)nc3c2CCN(c2ccccc2OC(F)(F)F)C3)CC1CC#N` (stereo partly drawn) [Example 211, 2-(1-acryloyl-4-(2-(((S)-1-methylpyrrolidin-2-yl)methoxy)-7-(2-(trifluoromethoxy)phenyl)-5,6,7,8-tetrahydropyrido[3,4-d]pyrimidin-4-yl)piperazin-2-yl)acetonitrile], the IC50 lay in the range of 1 to 1000 nM.

For `C=CC(=O)N1CCN(c2nc(O[C@H](C)[C@H]3CCCN3C)nc3c2CCN(c2cc(O)cc4ccccc24)C3)CC1` [Example 129, 1-[4-[7-(3-hydroxy-1-naphthyl)-2-[(1R)-1-[(2R)-1-methylpyrrolidin-2-yl]ethoxy]-6,8-dihydro-5H-pyrido[3,4-d]pyrimidin-4-yl]piperazin-1-yl]prop-2-en-1-one], the IC50 was in the range of 1 to 1000 nM.

On to `C=CC(=O)N1CCN(c2nc(OC[C@@H]3CCCN3C(C)C)nc3c2CCN(c2cc(O)cc4ccccc24)C3)CC1` [Example 145, 1-[4-[7-(3-hydroxy-1-naphthyl)-2-[[(2S)-1-isopropylpyrrolidin-2-yl]methoxy]-6,8-dihydro-5H-pyrido[3,4-d]pyrimidin-4-yl]piperazin-1-yl]prop-2-en-1-one], for which the IC50 lay in the range of 1 to 1000 nM.

For `C=CC(=O)N1CCN(c2nc(OC[C@@H]3C[C@@H](OC)CN3C)nc3c2CCN(c2cccc4ccccc24)C3)CC1CC#N` (stereo partly drawn) [Example 268, 2-(1-acryloyl-4-(2-(((2S,4R)-4-methoxy-1-methylpyrrolidin-2-yl)methoxy)-7-(naphthalen-1-yl)-5,6,7,8-tetrahydropyrido[3,4-d]pyrimidin-4-yl)piperazin-2-yl)acetonitrile], the IC50 is 1 to 1000 nM.

Turning to `C=CC(=O)N1CCN(c2nc(OC[C@@H]3CN(C)CCO3)nc3c2CCN(c2cccc4ccccc24)C3)CC1CC#N` (stereo partly drawn) [Example 271, 2-(1-acryloyl-4-(2-(((S)-4-methylmorpholin-2-yl)methoxy)-7-(naphthalen-1-yl)-5,6,7,8-tetrahydropyrido[3,4-d]pyrimidin-4-yl)piperazin-2-yl)acetonitrile], the IC50 fell in the range of 1 to 1000 nM.

With `C=CC(=O)N1CCN(c2nc(O[C@@H](C)[C@@H]3CCCN3C)nc3c2CCN(c2cc(O)cc4ccccc24)C3)CC1` [Example 130, 1-(4-(7-(3-hydroxynaphthalen-1-yl)-2-((S)-1-((S)-1-methylpyrrolidin-2-yl)ethoxy)-5,6,7,8-tetrahydropyrido[3,4-d]pyrimidin-4-yl)piperazin-1-yl)prop-2-en-1-one], the IC50 was in the range of 1 to 1000 nM.

Consider `C=CC(=O)N1CCN(c2nc(OCCN3CCCC[C@@H]3C)nc3c2CCN(c2cc(O)cc4ccccc24)C3)CC1` [Example 88, (S)-1-(4-(7-(3-hydroxynaphthalen-1-yl)-2-(2-(2-methylpiperidin-1-yl)ethoxy)-5,6,7,8-tetrahydropyrido[3,4-d]pyrimidin-4-yl)piperazin-1-yl)prop-2-en-1-one], for which the IC50 was 1 to 1000 nM.

With `C=CC(=O)N1CCN(c2nc(OC[C@@H]3CCCN3C)nc3c2CCN(c2cccc4cc(F)ccc24)C3)CC1CC#N` (stereo partly drawn) [Example 259, 2-[4-[7-(6-fluoro-1-naphthyl)-2-[[(2S)-1-methylpyrrolidin-2-yl]methoxy]-6,8-dihydro-5H-pyrido[3,4-d]pyrimidin-4-yl]-1-prop-2-enoyl-piperazin-2-yl]acetonitrile], the IC50 lay in the range of 1 to 1000 nM.

`C=CC(=O)N1CCN(c2nc(OCCN3CCCCC3)nc3c2CCN(c2cc(O)cc4ccccc24)C3)CC1` [Example 52, 1-[4-[7-(3-hydroxy-1-naphthyl)-2-[2-(1-piperidyl)ethoxy]-6,8-dihydro-5H-pyrido[3,4-d]pyrimidin-4-yl]piperazin-1-yl]prop-2-en-1-one]: the IC50 was 1 to 1000 nM.

For `C=CC(=O)N1CCN(c2nc(OCC3CCN(C4CCCCC4)C3)nc3c2CCN(c2cc(O)cc4ccccc24)C3)CC1` (stereo not drawn) [Example 132, 1-[4-[2-[(1-cyclohexylpyrrolidin-3-yl)methoxy]-7-(3-hydroxy-1-naphthyl)-6,8-dihydro-5H-pyrido[3,4-d]pyrimidin-4-yl]piperazin-1-yl]prop-2-en-1-one], the IC50 lay in the range of 1 to 1000 nM.

As for `C=CC(=O)N1CCN(c2nc(OC[C@@H]3CCCN3C)nc3c2CCN(c2cccc(C)c2C)C3)CC1CC#N` (stereo partly drawn) [Example 228, 2-(1-acryloyl-4-(7-(2,3-dimethylphenyl)-2-(((S)-1-methylpyrrolidin-2-yl)methoxy)-5,6,7,8-tetrahydropyrido[3,4-d]pyrimidin-4-yl)piperazin-2-yl)acetonitrile], the IC50 was in the range of 1 to 1000 nM.

As to `C=CC(=O)N1CCN(c2nc(OCC3CCCN(C)C3)nc3c2CCN(c2cc(O)cc4ccccc24)C3)CC1` (stereo not drawn) [Example 72, 1-(4-(7-(3-hydroxynaphthalen-1-yl)-2-((1-methylpiperidin-3-yl)methoxy)-5,6,7,8-tetrahydropyrido[3,4-d]pyrimidin-4-yl)piperazin-1-yl)prop-2-en-1-one], the IC50 fell in the range of 1 to 1000 nM.

For the compound `C=CC(=O)N1CCN(c2nc(OC[C@@H]3CCCN3C)nc3c2CCN(c2ccccc2C(F)(F)F)C3)C[C@@H]1CC#N` [Example 237, 2-((S)-1-acryloyl-4-(2-(((S)-1-methylpyrrolidin-2-yl)methoxy)-7-(2-(trifluoromethyl)phenyl)-5,6,7,8-tetrahydropyrido[3,4-d]pyrimidin-4-yl)piperazin-2-yl)acetonitrile 2,2,2-trifluoroacetate], the IC50 lay in the range of 1 to 1000 nM.

As to `C=CC(=O)N1CCN(c2nc(OCCCN3CCCC3)nc3c2CCN(c2cc(O)cc4ccccc24)C3)CC1` [Example 39, 1-(4-(7-(3-hydroxynaphthalen-1-yl)-2-(3-(pyrrolidin-1-yl)propoxy)-5,6,7,8-tetrahydropyrido[3,4-d]pyrimidin-4-yl)piperazin-1-yl)prop-2-en-1-one], the IC50 lay within 1 to 1000 nM.

On to `C=CC(=O)N1CCN(c2nc(OC[C@@H]3CCCN3C)nc3c2CCN(c2ccc(F)c4ccccc24)C3)CC1CC#N` (stereo partly drawn) [Example 246, 2-[4-[7-(4-fluoro-1-naphthyl)-2-[[(2S)-1-methylpyrrolidin-2-yl]methoxy]-6,8-dihydro-5H-pyrido[3,4-d]pyrimidin-4-yl]-1-prop-2-enoyl-piperazin-2-yl]acetonitrile], for which the IC50 lay within 1 to 1000 nM.
